The values that follow are results of earlier work, collected in patent US7604185B2, “Generation of therapeutic microfoam” (BTG International Ltd., priority 2002, dated 2009).

The conditions of the data set: in water at STP.
For the compound `O=C=O` [Carbon dioxide], the “Mole Fraction Solubility 10^−3” value was 61.5 10^−3.
`[He]` [Helium]: the “Mole Fraction Solubility 10^−3” value is given as 0.7 10^−3.
With `[N-]=[N+]=O` [Nitrous oxide], the “Mole Fraction Solubility 10^−3” value is on record as 43.7 10^−3.
In the case of `O=O` [Oxygen], the “Mole Fraction Solubility 10^−3” value is reported as 2.3 10^−3.
